In series [1] the test system is BV-2. Nature of the series: Effect of amyloid beta (1 to 42) indued apoptosis in mouse BV-2 cells assessed as necrotic cells at 10 uM measured by propidium iodide staining based flow cytometric analysis (reference value: 5.72%). The format is functional.
A short description of series [2]: Acute toxicity in mouse assessed as histopathological change in spleen at 2000 mg/kg, IG administered as single dose measured after 14 days measured by H and E staining analysis. The conditions noted are these: in vivo, po, 336 h, time 14 day. The format is organism-based.
Series [3] relates to Mus musculus. Briefly: Neuroprotective effect in scopolamine induced cognitively impaired mouse assessed as reversal of amyloid beta plaque deposition at 20 mg/kg by immunohistochemistry staining analysis. The format is functional, organism-based.
The nature of series [4]: Antioxidant activity by measuring oxygen radical absorbance capacity-fluorescein values. The format is functional.
Series [5] deals with BV-2. Briefly: Effect of amyloid beta (1 to 42) indued apoptosis in mouse BV-2 cells assessed as viable cells at 5 uM measured by propidium iodide staining based flow cytometric analysis (reference value: 61.29%). To be noted: read-out: Activity. The format is functional. For orientation: In flow cytometry, cells or beads pass a laser one at a time.
Series [6] concerns the target T1, Amyloid-beta precursor protein (Homo sapiens, UniProt P05067). Nature of the series: Inhibition of amyloid beta (1 to 42) (unknown origin) self aggregation assessed as decrease in number of amyloid beta fibrils at 50 uM for 24 hrs.
A short description of series [7]: Metal chelating activity assessed as compound-Mn2+ complex formation by optical shift at 50 uM in PBS buffer 7.4 by UV-vis spectrometric analysis.
The test system of series [8] is Mus musculus. Nature of the series: Cognitive enhancement in scopolamine induced ICR alzheimer's disease mouse assessed as gain in body weight pretreated with scopolamine at 3 mg/kg, ip for 31 days followed by compound addition at 20 mg/kg, po at day 7 to 31. The format is functional, organism-based. To be noted: time 25.0 day.
Series [9] in a line: Metal chelating activity assessed as compound-K+ complex formation by optical shift at 50 uM in PBS buffer 7.4 by UV-vis spectrometric analysis.
Series [10] in a line: Acute toxicity in mouse assessed as histopathological change in heart at 2000 mg/kg, IG administered as single dose measured after 14 days measured by H and E staining analysis. The format is organism-based. To be noted: in vivo, po, 336 h, time 14 day.
A short description of series [11]: Cmax in Sprague-Dawley rat at 15 mg/kg, IG. It counts as ADME, organism-based. Set-up: dose 15 mg/kg, route ig. To be noted: in vivo, po.
Series [12] has as its target T1, Amyloid-beta precursor protein. Briefly: Inhibition of Cu2+ induced amyloid beta (1 to 42) (unknown origin) aggregation assessed as depolymerization at 50 uM for 24 hrs by TEM analysis.
The nature of series [13]: Ratio of drug concentration in hippocampus to plasma of Sprague-Dawley rat at 15 mg/kg, IG measured after 0.167 hrs. To be noted: po. It counts as ADME, organism-based.
The test system of series [14] is BV-2. Nature of the series: Antioxidant activity in H2O2 treated mouse BV-2 cells assessed as reversal of HO-1 level at 5 to 20 uM by immunofluorescence analysis. The format is functional, cell-based. To be noted: dose 5-20 µM.
For series [15], the system named is Mus musculus. Nature of the series: Antioxidant activity in scopolamine induced cognitive impaired mouse assessed as reversal of HO-1 level in cortex at 20 mg/kg. It counts as functional, organism-based.
The subject of series [16] is Mus musculus. Nature of the series: In vivo antiinflammatory activity in scopolamine induced cognitive impaired ICR mouse assessed as decrease in GFAP levels in hippocampus by immunoblot analysis. The format is functional, organism-based. (In general: In western blotting, separated proteins are transferred to a membrane and probed.)
The nature of series [17]: Acute toxicity in mouse assessed as change in behaviour at 2000 mg/kg, IG administered as single dose measured after 14 days. It counts as organism-based. The conditions noted are these: in vivo, po, 336 h, time 14 day.
Series [18] deals with BV-2. Briefly: Effect of amyloid beta (1 to 42) indued apoptosis in mouse BV-2 cells assessed as necrotic cells at 2.5 uM measured by propidium iodide staining based flow cytometric analysis (reference value: 5.72%). The format is functional.
Series [19] in a line: Drug concentration in hippocampus of Sprague-Dawley rat at 15 mg/kg, IG measured after 0.083 hrs. The format is ADME, organism-based. The conditions noted are these: po, read-out: Drug uptake.
Series [20] concerns BV-2. Nature of the series: Effect on H2O2 induced reactive oxygen species in mouse BV-2 cells assessed as reduction of ROS generation at 5 uM by fluorescence microscopic analysis relative to control. Set-up: scale not given: the % may be the effect or the level left. The format is functional.
Series [21] concerns Mus musculus. Briefly: Anti alzheimer activity in scopolamine induced anxiety in ICR mouse assessed as decrease in chaotic behaviour pretreated with scopolamine at 3 mg/kg, ip for 31 days followed by compound addition at 20 mg/kg, po at day 7 to 31 by morris water maze test. The format is functional, organism-based. To be noted: time 25.0 day.
Series [22] relates to Mus musculus. Briefly: Antioxidant activity in scopolamine induced cognitive impaired mouse assessed as increase of GSH level in cortex at 20 mg/kg. The format is functional, organism-based.
Series [23] in a line: Drug concentration in plasma of Sprague-Dawley rat at 15 mg/kg, IG measured after 0.083 hrs. It counts as ADME, organism-based. The conditions noted are these: po.
The subject of series [24] is BV-2. Briefly: Antiinflammatory activity in LPS induced mouse BV-2 cells decrease in release of […] at 5 uM by […] (reference value: 100%). It counts as functional. (Tetrazolium dyes change colour on reduction, which living cells bring about.)

Molecules are shown by their SMILES. Active and inactive are the calls of the source. The calls are words filed in the database; no cut-off is given here.

By Cmax is commonly meant the highest concentration seen after dosing. The term Kp denotes tissue or fluid exposure divided by exposure in the circulation.

T1 sequence (P05067 whole entry): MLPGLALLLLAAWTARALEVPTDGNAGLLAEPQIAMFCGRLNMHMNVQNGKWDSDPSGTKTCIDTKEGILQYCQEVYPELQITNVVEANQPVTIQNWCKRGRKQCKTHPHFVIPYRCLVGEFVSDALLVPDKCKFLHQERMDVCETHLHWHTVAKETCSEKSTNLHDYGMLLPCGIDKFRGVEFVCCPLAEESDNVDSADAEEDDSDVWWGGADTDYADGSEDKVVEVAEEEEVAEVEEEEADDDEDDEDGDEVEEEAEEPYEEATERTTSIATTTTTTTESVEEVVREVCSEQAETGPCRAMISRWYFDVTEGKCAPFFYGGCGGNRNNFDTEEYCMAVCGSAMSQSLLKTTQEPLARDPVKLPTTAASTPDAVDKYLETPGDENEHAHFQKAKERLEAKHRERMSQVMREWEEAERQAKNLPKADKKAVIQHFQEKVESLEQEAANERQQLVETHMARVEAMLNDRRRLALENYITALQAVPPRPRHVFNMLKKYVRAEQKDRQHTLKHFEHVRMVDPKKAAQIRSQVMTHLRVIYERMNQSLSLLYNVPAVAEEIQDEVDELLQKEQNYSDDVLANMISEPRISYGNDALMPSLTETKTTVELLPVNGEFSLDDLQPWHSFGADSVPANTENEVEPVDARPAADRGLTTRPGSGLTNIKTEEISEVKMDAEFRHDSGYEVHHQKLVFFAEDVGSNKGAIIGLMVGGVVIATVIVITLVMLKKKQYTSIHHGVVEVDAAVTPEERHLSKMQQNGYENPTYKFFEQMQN

As for `O=c1ccoc(/C=C/c2ccc(O)c(O)c2)c1O`, the Activity with BV-2 [1] is 7.98%; in series [2], “Non-Toxic”; in [10], “Non-Toxic”; in [17] it was “Non-Toxic”; with BV-2 [18], 0.16%; with BV-2 [20] it was 19.45%. Also, the outcome in the series on Mus musculus [3], in the series with Mus musculus [8], in the series on BV-2 [14], with Mus musculus [15], in the series with Mus musculus [16] and in the series on Mus musculus [21] was Active. The outcome in the series on Mus musculus [22] was Active. This compound registered an Activity index in [4] of 2.65. The viability at 5 µM in the series with BV-2 [5] came out at 77.4%. Further, the inhibition result in series [6] and in series [12] was “Active” each time. Further, the outcome in series [7] and in [9] was inactive. Besides, the Cmax in series [11] came to 14.4 ng/mL. Further, in [13], the Kp at 0.167 h was 0.07. Moreover, the figures for the concentration at 0.083 h in series [19] and in series [23] were 1.14 ng/mL and 18.5 ng/mL, respectively. In the series with BV-2 [24], the “Nitric oxide release (% of LPS control)” value was determined as 86.32%.

Source of the values: ChEMBL document CHEMBL5325414, “Novel neuroprotective pyromeconic acid derivatives with concurrent anti-Aβ deposition, anti-inflammatory, and anti-oxidation properties for treatment of Alzheimer's disease” (Eur J Med Chem, 2023).
